Legend:
[1] = tested on: panel of five cancer cell lines (T24, PC-3, MCF7, A549, HeLa); test: MTT cell viability, 72 h, pooled over the cancer cell panel; type: cell-based, human; conditions: for Average SI vs MC3T3, Blue light: GI50 MC3T3 / GI50 of all irradiated cancer cell lines; for Average SI vs NIH, Blue light: GI50 NIH-3T3 / GI50 of all irradiated cancer cell lines
Method: For all biology experiments, the compounds were solubilized in DMSO to reach a final fixed concentration equal to 0.1% v/v to avoid cytotoxicity caused by DMSO [89]. The results are normalized to controls (0.1% v/v DMSO). Depending on the cell type, approximatively 1000 to 10,000 cells/cm^2 were seeded in 48-well plates for MTT, ATP and GSH assays and 60 mm Petri dishes for Western blots. Cells were allowed to attach overnight and then incubated for 4 h with the different complexes (in the dark), then irradiated for 10 min, followed by an incubation in the dark up to 72 h.
Irradiation was conducted using an in-house device: a series of blue light LEDs selected according to the absorption spectra of the compounds at a 458 nm wavelength with an emitted power of 9.6 watts. The absorbed energy, or irradiance, was measured at 458 nm with a Thorlabs Optical Power Meter PM100A at 5 and 10 cm distance between the cell layer and the light source and expressed as mW/cm^2.
A tetrazolium-based MTT reagent (3-(4,5-dimethylthiazol-2-yl)-2,5-diphenyltetrazolium bromide) was used to determine cell viability, as previously described. After 72 h of treatment at 37 °C and 5% CO2, cells were incubated with 25 μL MTT solution (5 mg/mL; Sigma-Aldrich) for 4 h. After solubilization with 500 μL of lysis buffer (DMSO), formazan was quantified by spectrophotometry with a microplate reader at 570 nm absorbance (ClarioSTAR, BMG LabTech, Champigny-sur-Marne, France). GI50 values corresponding to the concentration that caused 50% inhibition of cell proliferation were calculated from dose–response curves obtained by nonlinear regression analysis. All results were calculated from data obtained in at least three independent experiments.

[2] = Octanol–water partition coefficient, shake-flask method; type: physicochemical; conditions: n-octanol/water, UV absorbance 260 nm
Method: Lipophilicities of all complexes have been measured by the classical shake-flask method, using UV absorption. The Log p values range from -0.063 to 0.861 in increasing order –0.063 (4a), 0.035 (4d), 0.519 (4f), 0.581 (4c), 0.842 (4b), 0.847 (4e) and 0.861 (4g).
The octanol–water partition coefficients (P) of 4a to 4g were determined using a shake-flask method. Water (100 mL, distilled after milli-Q purification) and n-octanol (100 mL, Sigma-Aldrich, St. Louis, MO, USA, ACS spectrophotometric grade, ≥99%) were shaken together for 24 h to allow saturation of both phases. Stock solutions of the […] compounds (50 μM) were prepared in the aqueous phase and aliquots (1 mL) of each of these stock solutions were then added to an equal volume of the n-octanol phase. The resultant biphasic solutions were mixed for 1 h and then centrifuged (3000× g, 5 min) (Eppendorf Centrifuges 5415R and 5804R) to separate the phases. The concentrations of the complexes in the organic and aqueous phases were then determined using UV absorbance spectroscopy (260 nm). Log P was defined as the logarithm of the ratio of the concentrations of the studied complex in the organic and aqueous phases (Log P = Log {[Ir(org)]/[Ir(aq)]}; values reported are the means of at least two separate determinations).

[3] = Photophysical measurements (emission, quantum yield, lifetime) in CH2Cl2; type: physicochemical; conditions: for τ1 excited-state lifetime: CH2Cl2; for ΦPL emission quantum yield: CH2Cl2, 298 K, references POPOP and quinine sulfate
Text: All complexes have been photophysically investigated at standard pressure in CH2Cl2 at 298 K. The absorption spectra of complexes 4a to 4g in CH2Cl2 at 298 K are shown in Figure 7. The strong absorption bands below 300 nm correspond to spin-allowed ^1π→π* electronic ligand-centered (LC) transitions. The structureless bands at 300–360 nm are attributed to ppy-to-ppy ^1π→π* […] charge transfer (LLCT) and Ir-to-ppy metal-to-ligand charge transfer (MLCT) transitions. The lowest-lying bands in the visible region can be assigned to both singlet and triplet MLCT transitions. No significant difference in the absorption spectra of complexes 4a to 4g can be found in the CH2Cl2 solution.
The luminescence spectra of complexes 4a to 4f in CH2Cl2 at 298 K are shown in Figure 8 and their photophysical data are summarized in Table 1.
The relative emission quantum yields (ΦPL) of these complexes in CH2Cl2 at room temperature were measured by using POPOP and quinine sulfate in 1 N H2SO4 as standard references (ΦPL = 97% and ΦPL = 54%, respectively). […] In addition, the excited-state lifetimes of complexes 4a to 4d are in the range of 166.4–190.7 ns, indicating the phosphorescence nature of the emissions.
UV/Vis absorption spectra were recorded at RT on solutions contained in quartz cuvettes (optical pathlength 1 cm, Hellma® (HELLMA, Müllheim, Germany)) with a PerkinElmer® (PerkinElmer, Waltham, MA, USA) UV/VIS/NIR spectrophotometer Lambda 950 and a PerkinElmer® detector UV/VIS/NIR Accessory 2D Detector Module.
Fluorescence and phosphorescence emission spectra were obtained with a HORIBA JOBIN YVON (Bensheim, Germany) fluromax-4 and spectrofluorometer.
Luminescence quantum yields were measured according to the method of Demas and Crosby, on solution samples at RT. The quantum yield is defined as: ΦS=ΦR*As/Ar* ηs/ηr^2^2 where ΦS is the quantum yield of the sample, ΦR is the known quantum yield of the reference standard at the area subtended by the emission band (on a wavelength scale) and η is the refractive index of the solvent used for the preparation of the solution. As (related to the sample) and Ar (related to the reference) must be excitation wavelength. Different standards were selected depending on the spectral region of the interest: POPOP in hexane (Φ = 97%) and QUININNE in water (Φ = 54%).
Fluorescence lifetime measurements were performed by an Edinburgh FLS920 spectrofluorometer equipped with a TCC900 card for data acquisition in time-correlated single-photon counting experiments (0.5 ns time resolution) with a D2 lamp and an LDH-P-C-405 pulsed diode laser. The estimated experimental error was 2 nm on the band maximum (5% on the lifetime, 10% on the fluorescence quantum yield).

SMILES | Average SI vs MC3T3, Blue light [1] | Average SI vs NIH, Blue light [1] | Log P [2] | τ1 excited-state lifetime [3] [ns] | ΦPL emission quantum yield [3] [%]
F[P-](F)(F)(F)(F)F.c1ccc(C[n+]2ccn3[c]2[Ir-3]24([c]5ccccc5-c5cccc[n+]52)([c]2ccccc2-c2cccc[n+]24)[c]2n(cc[n+]2Cc2ccccc2)C3)cc1 [Complex 4c] | 12.1 | 24.3 | 0.581 | 180 | 1.6
CC(C)C[n+]1ccn2[c]1[Ir-3]13([c]4ccccc4-c4cccc[n+]41)([c]1ccccc1-c1cccc[n+]13)[c]1n(cc[n+]1CC(C)C)C2.F[P-](F)(F)(F)(F)F [Complex 4b] | 8.3 | 18 | 0.842 | 166 | 1.6
CSc1ccc(-[n+]2ccn3[c]2[Ir-3]24([c]5ccccc5-c5cccc[n+]52)([c]2ccccc2-c2cccc[n+]24)[c]2n(cc[n+]2-c2ccc(SC)cc2)C3)cc1.F[P-](F)(F)(F)(F)F [Complex 4d] | 8.6 | 13.2 | 0.035 | 167 | 1.1
CC(C)[n+]1ccn2[c]1[Ir-3]13([c]4ccccc4-c4cccc[n+]41)([c]1ccccc1-c1cccc[n+]13)[c]1n(cc[n+]1C(C)C)C2.F[P-](F)(F)(F)(F)F [Complex 4a] |  |  | –0.063 | 191 | 1.2

— PMC9861386, “N-Heterocyclic Carbene-Iridium Complexes as Photosensitizers for In Vitro Photodynamic Therapy to Trigger Non-Apoptotic Cell Death in Cancer Cells” (Molecules, 2023)
